Columns and labels:
Experiment in all cases: relative viability (nuclei count vs DMSO), 5 days (fraction); higher = more cells survive
Gemcitabine + Pictilisib = compound: Nc1ccn([C@@H]2O[C@H](CO)[C@@H](O)C2(F)F)c(=O)n1 [Gemcitabine] + CS(=O)(=O)N1CCN(Cc2cc3nc(-c4cccc5[nH]ncc45)nc(N4CCOCC4)c3s2)CC1 [Pictilisib] (partner 1 µM)
How it was run: (§1)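 Lung cancer cell lines in 1536-well plates were dosed by pin tool the day after seeding, either with one drug alone or with a fixed anchor-drug dose plus five library-drug doses (not always all listed) in √10 steps. After 5 days, cells were fixed and their nuclei stained in one step (final 0.05% Triton X-100, 1% formaldehyde, 1 ug/ml Hoechst), then counted on 4× images. Relative viability is the nuclei count in treated wells divided by that in vehicle wells. Values are medians of duplicate plates.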

Gemcitabine + Crizotinib = compound: Nc1ccn([C@@H]2O[C@H](CO)[C@@H](O)C2(F)F)c(=O)n1 [Gemcitabine] + C[C@@H](Oc1cc(-c2cnn(C3CCNCC3)c2)cnc1N)c1c(Cl)ccc(F)c1Cl [Crizotinib] (partner 1 µM)
How it was run: as §1

Gemcitabine + Alpelisib = compound: Nc1ccn([C@@H]2O[C@H](CO)[C@@H](O)C2(F)F)c(=O)n1 [Gemcitabine] + Cc1nc(NC(=O)N2CCC[C@H]2C(N)=O)sc1-c1ccnc(C(C)(C)C(F)(F)F)c1 [Alpelisib] (partner 2 µM)
How it was run: as §1

Gemcitabine + Lapatinib = compound: Nc1ccn([C@@H]2O[C@H](CO)[C@@H](O)C2(F)F)c(=O)n1 [Gemcitabine] + CS(=O)(=O)CCNCc1ccc(-c2ccc3ncnc(Nc4ccc(OCc5cccc(F)c5)c(Cl)c4)c3c2)o1 [Lapatinib] (partner 2 µM)
How it was run: as §1

Gemcitabine + Bortezomib = compound: Nc1ccn([C@@H]2O[C@H](CO)[C@@H](O)C2(F)F)c(=O)n1 [Gemcitabine] + CC(C)C[C@H](NC(=O)[C@H](Cc1ccccc1)NC(=O)c1cnccn1)B(O)O [Bortezomib] (partner 0.002 µM)
How it was run: as §1

Gemcitabine + Olaparib = compound: Nc1ccn([C@@H]2O[C@H](CO)[C@@H](O)C2(F)F)c(=O)n1 [Gemcitabine] + O=C(c1cc(Cc2n[nH]c(=O)c3ccccc23)ccc1F)N1CCN(C(=O)C2CC2)CC1 [Olaparib] (partner 8 µM)
How it was run: as §1

Gemcitabine + Navitoclax = compound: Nc1ccn([C@@H]2O[C@H](CO)[C@@H](O)C2(F)F)c(=O)n1 [Gemcitabine] + CC1(C)CCC(c2ccc(Cl)cc2)=C(CN2CCN(c3ccc(C(=O)NS(=O)(=O)c4ccc(N[C@H](CCN5CCOCC5)CSc5ccccc5)c(S(=O)(=O)C(F)(F)F)c4)cc3)CC2)C1 [Navitoclax] (partner 0.5 µM)
How it was run: as §1

Gemcitabine + Foretinib = compound: Nc1ccn([C@@H]2O[C@H](CO)[C@@H](O)C2(F)F)c(=O)n1 [Gemcitabine] + COc1cc2c(Oc3ccc(NC(=O)C4(C(=O)Nc5ccc(F)cc5)CC4)cc3F)ccnc2cc1OCCCN1CCOCC1 [Foretinib] (partner 0.25 µM)
How it was run: as §1

Gemcitabine + Linsitinib = compound: Nc1ccn([C@@H]2O[C@H](CO)[C@@H](O)C2(F)F)c(=O)n1 [Gemcitabine] + C[C@]1(O)C[C@@H](c2nc(-c3ccc4ccc(-c5ccccc5)nc4c3)c3c(N)nccn32)C1 [Linsitinib] (partner 1 µM)
How it was run: as §1

Gemcitabine = compound: Nc1ccn([C@@H]2O[C@H](CO)[C@@H](O)C2(F)F)c(=O)n1 [Gemcitabine]
How it was run: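 Lung cancer cell lines in 1536-well plates were exposed by pinning to five library-drug doses (not always all listed) √10 apart, following an overnight hold at 37 °C. MetaXpress counted Hoechst-stained nuclei from 4× images taken after 5 days without medium change. Viability is the median ratio of treated-well to vehicle-well nuclei across plates. Plates required control CV below 25% and at least one doubling.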

Gemcitabine + Luminespib = compound: Nc1ccn([C@@H]2O[C@H](CO)[C@@H](O)C2(F)F)c(=O)n1 [Gemcitabine] + CCNC(=O)c1noc(-c2cc(C(C)C)c(O)cc2O)c1-c1ccc(CN2CCOCC2)cc1 [Luminespib] (partner 0.01 µM)
How it was run: as §1

Gemcitabine + Dasatinib = compound: Nc1ccn([C@@H]2O[C@H](CO)[C@@H](O)C2(F)F)c(=O)n1 [Gemcitabine] + Cc1nc(Nc2ncc(C(=O)Nc3c(C)cccc3Cl)s2)cc(N2CCN(CCO)CC2)n1 [Dasatinib] (partner 0.075 µM)
How it was run: as §1

Gemcitabine + Phenformin = compound: Nc1ccn([C@@H]2O[C@H](CO)[C@@H](O)C2(F)F)c(=O)n1 [Gemcitabine] + N=C(N)NC(=N)NCCc1ccccc1 [Phenformin] (partner 250 µM)
How it was run: as §1

Gemcitabine + OSI-027 = compound: Nc1ccn([C@@H]2O[C@H](CO)[C@@H](O)C2(F)F)c(=O)n1 [Gemcitabine] + COc1cccc2cc(-c3nc([C@H]4CC[C@H](C(=O)O)CC4)n4ncnc(N)c34)[nH]c12 [OSI-027] (partner 0.5 µM)
How it was run: as §1

Gemcitabine + Tozasertib = compound: Nc1ccn([C@@H]2O[C@H](CO)[C@@H](O)C2(F)F)c(=O)n1 [Gemcitabine] + Cc1cc(Nc2cc(N3CCN(C)CC3)nc(Sc3ccc(NC(=O)C4CC4)cc3)n2)n[nH]1 [Tozasertib] (partner 0.1 µM)
How it was run: as §1

NCI-H1299 gave a relative viability (Gemcitabine + Pictilisib; first compound 0.001 µM) of 0.637, a relative viability (Gemcitabine + Pictilisib; first compound 0.003162 µM) of 0.728 and a relative viability (Gemcitabine + Pictilisib; first compound 0.01 µM) of 0.709. The relative viability (Gemcitabine + Pictilisib; first compound 0.03162 µM) was 0.883, the relative viability (Gemcitabine + Pictilisib; first compound 0.1 µM) was 0.655 and the relative viability (Gemcitabine + Crizotinib; first compound 0.001 µM) was 1.03. It also gave a relative viability (Gemcitabine + Crizotinib; first compound 0.003162 µM) of 0.977, a relative viability (Gemcitabine + Crizotinib; first compound 0.01 µM) of 0.973 and a relative viability (Gemcitabine + Crizotinib; first compound 0.03162 µM) of 0.995. The relative viability (Gemcitabine + Crizotinib; first compound 0.1 µM) was 0.983, the relative viability (Gemcitabine + Alpelisib; first compound 0.001 µM) was 1.04 and the relative viability (Gemcitabine + Alpelisib; first compound 0.003162 µM) was 1.1. The relative viability (Gemcitabine + Alpelisib; first compound 0.01 µM) was 1.03, the relative viability (Gemcitabine + Alpelisib; first compound 0.03162 µM) was 1.05 and the relative viability (Gemcitabine + Alpelisib; first compound 0.1 µM) was 1.09. It also gave a relative viability (Gemcitabine + Lapatinib; first compound 0.001 µM) of 0.941, a relative viability (Gemcitabine + Lapatinib; first compound 0.003162 µM) of 1.01 and a relative viability (Gemcitabine + Lapatinib; first compound 0.01 µM) of 0.962. It also gave a relative viability (Gemcitabine + Lapatinib; first compound 0.03162 µM) of 0.938, a relative viability (Gemcitabine + Lapatinib; first compound 0.1 µM) of 0.921 and a relative viability (Gemcitabine + Bortezomib; first compound 0.001 µM) of 1.03. For the same cell line, the relative viability (Gemcitabine + Bortezomib; first compound 0.003162 µM) was 1.07, the relative viability (Gemcitabine + Bortezomib; first compound 0.01 µM) was 1 and the relative viability (Gemcitabine + Bortezomib; first compound 0.03162 µM) was 0.995. For the same cell line, the relative viability (Gemcitabine + Bortezomib; first compound 0.1 µM) was 1.07, the relative viability (Gemcitabine + Olaparib; first compound 0.001 µM) was 0.984 and the relative viability (Gemcitabine + Olaparib; first compound 0.003162 µM) was 1.03. It also gave a relative viability (Gemcitabine + Olaparib; first compound 0.01 µM) of 0.962, a relative viability (Gemcitabine + Olaparib; first compound 0.03162 µM) of 1 and a relative viability (Gemcitabine + Olaparib; first compound 0.1 µM) of 0.937. For the same cell line, the relative viability (Gemcitabine + Navitoclax; first compound 0.001 µM) was 1.02, the relative viability (Gemcitabine + Navitoclax; first compound 0.003162 µM) was 1.08 and the relative viability (Gemcitabine + Navitoclax; first compound 0.01 µM) was 1.04. For the same cell line, the relative viability (Gemcitabine + Navitoclax; first compound 0.03162 µM) was 1.02, the relative viability (Gemcitabine + Navitoclax; first compound 0.1 µM) was 1.06 and the relative viability (Gemcitabine + Foretinib; first compound 0.001 µM) was 1.09. The relative viability (Gemcitabine + Foretinib; first compound 0.003162 µM) was 1.08, the relative viability (Gemcitabine + Foretinib; first compound 0.01 µM) was 1.09 and the relative viability (Gemcitabine + Foretinib; first compound 0.03162 µM) was 1.07. It also gave a relative viability (Gemcitabine + Foretinib; first compound 0.1 µM) of 1.08, a relative viability (Gemcitabine + Linsitinib; first compound 0.001 µM) of 0.987 and a relative viability (Gemcitabine + Linsitinib; first compound 0.003162 µM) of 1.01. It also gave a relative viability (Gemcitabine + Linsitinib; first compound 0.01 µM) of 0.981, a relative viability (Gemcitabine + Linsitinib; first compound 0.03162 µM) of 1 and a relative viability (Gemcitabine + Linsitinib; first compound 0.1 µM) of 0.972. For the same cell line, the relative viability (Gemcitabine; 0.001 µM) was 0.998, the relative viability (Gemcitabine; 0.003162 µM) was 1.05 and the relative viability (Gemcitabine; 0.01 µM) was 1. For the same cell line, the relative viability (Gemcitabine; 0.03162 µM) was 1.02 and the relative viability (Gemcitabine; 0.1 µM) was 1.03.
In the case of NCI-H1623, the relative viability (Gemcitabine + Luminespib; first compound 0.001 µM) is reported as 0.43, the relative viability (Gemcitabine + Luminespib; first compound 0.003162 µM) is reported as 0.308 and the relative viability (Gemcitabine + Luminespib; first compound 0.01 µM) is reported as 0.279. For the same cell line, the relative viability (Gemcitabine + Luminespib; first compound 0.03162 µM) was 0.236, the relative viability (Gemcitabine + Luminespib; first compound 0.1 µM) was 0.234 and the relative viability (Gemcitabine + Dasatinib; first compound 0.001 µM) was 0.485. It also gave a relative viability (Gemcitabine + Dasatinib; first compound 0.003162 µM) of 0.431, a relative viability (Gemcitabine + Dasatinib; first compound 0.01 µM) of 0.175 and a relative viability (Gemcitabine + Dasatinib; first compound 0.03162 µM) of 0.139. For the same cell line, the relative viability (Gemcitabine + Dasatinib; first compound 0.1 µM) was 0.143, the relative viability (Gemcitabine + Phenformin; first compound 0.001 µM) was 0.526 and the relative viability (Gemcitabine + Phenformin; first compound 0.003162 µM) was 0.49. The relative viability (Gemcitabine + Phenformin; first compound 0.01 µM) was 0.201, the relative viability (Gemcitabine + Phenformin; first compound 0.03162 µM) was 0.369 and the relative viability (Gemcitabine + Phenformin; first compound 0.1 µM) was 0.164. The relative viability (Gemcitabine + OSI-027; first compound 0.001 µM) was 0.349, the relative viability (Gemcitabine + OSI-027; first compound 0.003162 µM) was 0.29 and the relative viability (Gemcitabine + OSI-027; first compound 0.01 µM) was 0.254. It also gave a relative viability (Gemcitabine + OSI-027; first compound 0.03162 µM) of 0.245, a relative viability (Gemcitabine + OSI-027; first compound 0.1 µM) of 0.237 and a relative viability (Gemcitabine + Foretinib; first compound 0.001 µM) of 0.741. For the same cell line, the relative viability (Gemcitabine + Foretinib; first compound 0.003162 µM) was 0.518, the relative viability (Gemcitabine + Foretinib; first compound 0.01 µM) was 0.268 and the relative viability (Gemcitabine + Foretinib; first compound 0.03162 µM) was 0.229. For the same cell line, the relative viability (Gemcitabine + Foretinib; first compound 0.1 µM) was 0.194, the relative viability (Gemcitabine + Tozasertib; first compound 0.001 µM) was 0.333 and the relative viability (Gemcitabine + Tozasertib; first compound 0.003162 µM) was 0.222. For the same cell line, the relative viability (Gemcitabine + Tozasertib; first compound 0.01 µM) was 0.173, the relative viability (Gemcitabine + Tozasertib; first compound 0.03162 µM) was 0.16 and the relative viability (Gemcitabine + Tozasertib; first compound 0.1 µM) was 0.17. The relative viability (Gemcitabine; 0.001 µM) was 0.743, the relative viability (Gemcitabine; 0.003162 µM) was 0.255 and the relative viability (Gemcitabine; 0.01 µM) was 0.218. The relative viability (Gemcitabine; 0.03162 µM) was 0.188 and the relative viability (Gemcitabine; 0.1 µM) was 0.178.
